In one experiment the target is galectin-1 (Homo sapiens (Human), UniProt P09382). Put plainly: Fluorescence anisotropy assay, galectin-1 affinity. The conditions noted are these: inhibition of galectin / fluorescein tagged saccharide probe interaction. It is filed as binding. How it is done: The affinity of Example 1-22 for galectins were determined by a fluorescence anisotropy assay where the compound was used as an inhibitor of the interaction between galectin and a fluorescein tagged saccharide probe as described Sörme, P., Kahl-Knutsson, B., Huflejt, M., Nilsson, U. J., and Leffler H. (2004) Fluorescence polarization as an analytical tool to evaluate galectin-ligand interactions. Anal. Biochem. 334: 36-47, (Sörme et al., 2004) and Monovalent interactions of Galectin-1 By Salomonsson, Emma; Larumbe, Amaia; Tejler, Johan; Tullberg, Erik; Rydberg, Hanna; Sundin, Anders; Khabut, Areej; Frejd, Torbjorn; Lobsanov, Yuri D.; Rini, James M.; et al, From Biochemistry (2010), 49(44), 9518-9532, (Salomonsson et al., 2010). […] 100 nM albumin was included as a carrier to prevent protein loss at such low concentration of galectin.
galectin-1, sequence (P09382 whole entry): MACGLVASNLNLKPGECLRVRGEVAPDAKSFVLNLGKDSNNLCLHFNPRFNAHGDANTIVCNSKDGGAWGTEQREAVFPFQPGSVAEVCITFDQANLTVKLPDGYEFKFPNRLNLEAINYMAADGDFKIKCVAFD
In general, Kd refers to the equilibrium constant for the complex coming apart. As for `N#Cc1cnc(S[C@H]2O[C@H](CO)[C@H](O)[C@H](n3cc(-c4cc(F)c(F)c(F)c4)nn3)[C@H]2O)cc1Br` [Example 1, 4-Bromo-5-cyano-2-pyridyl 3-deoxy-3-[4-(3,4,5-trifluorophenyl)-1H-1,2,3-triazol-1-yl]-1-thio-α-D-galactopyranoside], the Kd worked out at 2.6 µM.
The compound `OC[C@H]1O[C@H](Sc2cc(Cl)ccn2)[C@H](O)[C@@H](n2cc(-c3cc(F)c(F)c(F)c3)nn2)[C@H]1O` [Example 7, 4-Chloro-2-pyridyl 3-deoxy-3-[4-(3,4,5-trifluorophenyl)-1H-1,2,3-triazol-1-yl]-1-thio-α-D-galactopyranoside] came in with an equilibrium dissociation constant (Kd) of 6.9 µM.
Same read-out and setting: the value for `N#Cc1ncc(S[C@H]2O[C@H](CO)[C@H](O)[C@H](n3cc(-c4cc(F)c(Cl)c(F)c4)nn3)[C@H]2O)cc1Br` [Example 12, 5-Bromo-6-cyano-3-pyridyl 3-deoxy-3-[4-(4-chloro-3,5-difluorophenyl)-1H-1,2,3-triazol-1-yl]-1-thio-α-D-galactopyranoside] was 7 µM.

In another experiment the target is galectin-3 (Homo sapiens (Human), UniProt P17931). Put plainly: Fluorescence anisotropy assay, galectin-3 affinity. It is filed as binding. To be noted: inhibition of galectin / fluorescein tagged saccharide probe interaction. Here is the method: Anal. Biochem. 334: 36-47, (Sörme et al., 2004) and Monovalent interactions of Galectin-1 By Salomonsson, Emma; Larumbe, Amaia; Tejler, Johan; Tullberg, Erik; Rydberg, Hanna; Sundin, Anders; Khabut, Areej; Frejd, Torbjorn; Lobsanov, Yuri D.; Rini, James M.; et al, From Biochemistry (2010), 49(44), 9518-9532, (Salomonsson et al., 2010). […] 100 nM albumin was included as a carrier to prevent protein loss at such low concentration of galectin.
galectin-3, sequence (P17931 whole entry): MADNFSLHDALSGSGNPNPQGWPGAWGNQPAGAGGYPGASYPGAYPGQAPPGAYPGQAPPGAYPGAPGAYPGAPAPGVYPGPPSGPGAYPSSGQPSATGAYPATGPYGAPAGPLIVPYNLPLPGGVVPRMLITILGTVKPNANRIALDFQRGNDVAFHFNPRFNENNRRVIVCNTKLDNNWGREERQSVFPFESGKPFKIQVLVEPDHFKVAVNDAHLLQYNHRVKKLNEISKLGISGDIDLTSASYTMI
Take `N#Cc1cnc(S[C@H]2O[C@H](CO)[C@H](O)[C@H](n3cc(-c4cc(F)c(F)c(F)c4)nn3)[C@H]2O)cc1Br` [Example 1, 4-Bromo-5-cyano-2-pyridyl 3-deoxy-3-[4-(3,4,5-trifluorophenyl)-1H-1,2,3-triazol-1-yl]-1-thio-α-D-galactopyranoside]: binding was put at a Kd of 0.027 µM.
The same measure, in the same setting: the value for `N#Cc1cnc(S[C@H]2O[C@H](CO)[C@H](O)[C@H](n3cc(-c4cc(F)c(F)c(F)c4)nn3)[C@H]2O)cc1Cl` [Example 2, 4-Chloro-5-cyano-2-pyridyl 3-deoxy-3-[4-(3,4,5-trifluorophenyl)-1H-1,2,3-triazol-1-yl]-1-thio-α-D-galactopyranoside] was 0.057 µM.
With `OC[C@H]1O[C@H](Sc2ccnc(Cl)c2)[C@H](O)[C@@H](n2cc(-c3cc(F)c(F)c(F)c3)nn2)[C@H]1O` [Example 3, 2-Chloro-4-pyridyl 3-deoxy-3-[4-(3,4,5-trifluorophenyl)-1H-1,2,3-triazol-1-yl]-1-thio-α-D-galactopyranoside], binding was characterised by a dissociation constant (Kd) of 0.086 µM.
The same measure, in the same setting: the same measure for `N#Cc1ncc(Cl)cc1S[C@H]1O[C@H](CO)[C@H](O)[C@H](n2cc(-c3cc(F)c(F)c(F)c3)nn2)[C@H]1O` [Example 4, 5-Chloro-2-cyano-3-pyridyl 3-deoxy-3-[4-(3,4,5-trifluorophenyl)-1H-1,2,3-triazol-1-yl]-1-thio-α-D-galactopyranoside]: 0.029 µM; for `N#Cc1ncc(S[C@H]2O[C@H](CO)[C@H](O)[C@H](n3cc(-c4cc(F)c(F)c(F)c4)nn3)[C@H]2O)cc1Br` [Example 5, 5-Bromo-6-cyano-3-pyridyl 3-deoxy-3-[4-(3,4,5-trifluorophenyl)-1H-1,2,3-triazol-1-yl]-1-thio-α-D-galactopyranoside]: 0.022 µM.
The same measure, in the same setting: the value for `N#Cc1ncc(Br)cc1S[C@H]1O[C@H](CO)[C@H](O)[C@H](n2cc(-c3cc(F)c(F)c(F)c3)nn2)[C@H]1O` [Example 6, 5-Bromo-2-cyano-3-pyridyl 3-deoxy-3-[4-(3,4,5-trifluorophenyl)-1H-1,2,3-triazol-1-yl]-1-thio-α-D-galactopyranoside] was 0.022 µM.
On the same count and under the same terms, the same measure for `OC[C@H]1O[C@H](Sc2cc(Cl)ccn2)[C@H](O)[C@@H](n2cc(-c3cc(F)c(F)c(F)c3)nn2)[C@H]1O` [Example 7, 4-Chloro-2-pyridyl 3-deoxy-3-[4-(3,4,5-trifluorophenyl)-1H-1,2,3-triazol-1-yl]-1-thio-α-D-galactopyranoside]: 0.12 µM.
`OC[C@H]1O[C@H](Sc2cncc(Cl)c2)[C@H](O)[C@@H](n2cc(-c3cc(F)c(Cl)c(F)c3)nn2)[C@H]1O` [Example 9, 5-Chloro-3-pyridyl 3-deoxy-3-[4-(4-chloro-3,5-difluorophenyl)-1H-1,2,3-triazol-1-yl]-1-thio-α-D-galactopyranoside] had a Kd of 0.022 µM.
As for `N#Cc1ncc(S[C@H]2O[C@H](CO)[C@H](O)[C@H](n3cc(-c4cc(F)c(Cl)c(F)c4)nn3)[C@H]2O)cc1Cl` [Example 10, 5-Chloro-6-cyano-3-pyridyl 3-deoxy-3-[4-(4-chloro-3,5-difluorophenyl)-1H-1,2,3-triazol-1-yl]-1-thio-α-D-galactopyranoside], the dissociation constant (Kd) came out at 0.018 µM.
Same read-out and setting: the value for `N#Cc1ncc(Br)cc1S[C@H]1O[C@H](CO)[C@H](O)[C@H](n2cc(-c3cc(F)c(Cl)c(F)c3)nn2)[C@H]1O` [Example 11, 5-Bromo-2-cyano-3-pyridyl 3-deoxy-3-[4-(4-chloro-3,5-difluorophenyl)-1H-1,2,3-triazol-1-yl]-1-thio-α-D-galactopyranoside] was 0.011 µM; that for `N#Cc1ncc(S[C@H]2O[C@H](CO)[C@H](O)[C@H](n3cc(-c4cc(F)c(Cl)c(F)c4)nn3)[C@H]2O)cc1Br` [Example 12, 5-Bromo-6-cyano-3-pyridyl 3-deoxy-3-[4-(4-chloro-3,5-difluorophenyl)-1H-1,2,3-triazol-1-yl]-1-thio-α-D-galactopyranoside] was 0.016 µM.
Still for that read-out and setting: the value for `N#Cc1ncc(Cl)cc1S[C@H]1O[C@H](CO)[C@H](O)[C@H](n2cc(-c3cc(F)c(Cl)c(F)c3)nn2)[C@H]1O` [Example 13, 5-Chloro-2-cyano-3-pyridyl 3-deoxy-3-[4-(4-chloro-3,5-difluorophenyl)-1H-1,2,3-triazol-1-yl]-1-thio-α-D-galactopyranoside] was 0.011 µM; that for `N#Cc1c(F)cc(-c2cn([C@@H]3[C@@H](O)[C@@H](Sc4cncc(Cl)c4)O[C@H](CO)[C@@H]3O)nn2)cc1F` [Example 14, 5-Chloro-3-pyridyl 3-deoxy-3-[4-(4-cyano-3,5-difluorophenyl)-1H-1,2,3-triazol-1-yl]-1-thio-α-D-galactopyranoside] was 0.18 µM.
The same measure, in the same setting: the same measure for `OC[C@H]1O[C@H](Sc2cncc(Cl)c2)[C@H](O)[C@@H](n2cc(-c3cc(F)c(C(F)(F)F)c(F)c3)nn2)[C@H]1O` [Example 15, 5-Chloro-3-pyridyl 3-deoxy-3-[4-(3,5-difluoro-4-trifluoromethyl-phenyl)-1H-1,2,3-triazol-1-yl]-1-thio-α-D-galactopyranoside]: 0.097 µM.
In turn, `Cc1c(F)cc(-c2cn([C@@H]3[C@@H](O)[C@@H](Sc4cncc(Cl)c4)O[C@H](CO)[C@@H]3O)nn2)cc1F` [Example 16, 5-Chloro-3-pyridyl 3-deoxy-3-[4-(3,5-difluoro-4-methylphenyl)-1H-1,2,3-triazol-1-yl]-1-thio-α-D-galactopyranoside] showed an equilibrium dissociation constant (Kd) of 0.018 µM.
The same measure, in the same setting: the value for `OC[C@H]1O[C@H](Sc2cncc(Cl)c2)[C@H](O)[C@@H](n2cc(-c3cc(F)c(Br)c(F)c3)nn2)[C@H]1O` [Example 17, 5-Chloro-3-pyridyl 3-deoxy-3-[4-(4-bromo-3,5-difluorophenyl)-1H-1,2,3-triazol-1-yl]-1-thio-α-D-galactopyranoside] was 0.028 µM; that for `OC[C@H]1O[C@H](Sc2cncc(Cl)c2)[C@H](O)[C@@H](n2cc(-c3cc(F)c(Cl)c(Cl)c3)nn2)[C@H]1O` [Example 18, 5-Chloro-3-pyridyl 3-deoxy-3-[4-(3,4-dichloro-5-fluorophenyl)-1H-1,2,3-triazol-1-yl]-1-thio-α-D-galactopyranoside] was 0.027 µM.
Same read-out and setting: the same measure for `OC[C@H]1O[C@H](Sc2cncc(Cl)c2)[C@H](O)[C@@H](n2cc(-c3ccc(Cl)c(F)c3)nn2)[C@H]1O` [Example 19, 5-Chloro-3-pyridyl 3-deoxy-3-[4-(4-chloro-3-fluorophenyl)-1H-1,2,3-triazol-1-yl]-1-thio-α-D-galactopyranoside]: 0.034 µM.
The same measure, in the same setting: the value for `OC[C@H]1O[C@H](Sc2ccc(Cl)c(Cl)c2)[C@H](O)[C@@H](n2cc(-c3cncc(F)c3)nn2)[C@H]1O` [Example 20, 3,4-Dichlorophenyl 3-deoxy-3-[4-(5-fluoro-3-pyridyl)-1H-1,2,3-triazol-1-yl]-1-thio-α-D-galactopyranoside] was 0.75 µM; that for `OC[C@H]1O[C@H](Sc2cncc(Cl)c2)[C@H](O)[C@@H](n2cc(-c3ccc(Cl)c(Cl)c3)nn2)[C@H]1O` [Example 21, 5-Chloro-3-pyridyl 3-deoxy-3-[4-(3,4-dichlorophenyl)-1H-1,2,3-triazol-1-yl]-1-thio-α-D-galactopyranoside] was 0.031 µM; that for `OC[C@H]1O[C@H](Sc2ccc(Cl)c(Cl)c2)[C@H](O)[C@@H](n2cc(-c3cncc(Cl)c3)nn2)[C@H]1O` [Example 22, 3,4-Dichlorophenyl 3-deoxy-3-[4-(5-chloro-3-pyridyl)-1H-1,2,3-triazol-1-yl]-1-thio-α-D-galactopyranoside] was 0.694 µM.

The next experiment relates to galectins.
Test: not given
The conditions noted are these: relative to lactose, all galectins; cited from earlier work.
Consider `O=C[C@H](O)[C@@H](O)[C@@H](O)[C@H](O)CO` [D-galactose], for which the “affinity, times lower than lactose” value is reported as 50-100 times.

The experiment is the same for the next values; noted with them: reviewed by Leffler 2001, Leffler et al. 2004; read-out: Kd, all galectins; cited from earlier work.
With `OC[C@H]1O[C@@H](O[C@H]2[C@H](O)[C@@H](O)C(O)O[C@@H]2CO)[C@H](O)[C@@H](O)[C@H]1O` (some centres unmarked) [lactose], the dissociation constant (Kd) is 500 to 1000 µM.

(Values after patent US10889610B2, “Alpha-D-galactoside inhibitors of galectins” (GALECTO BIOTECH AB, priority 2016, dated 2021).)
